“Also recorded” adds a separate entry of the source. Like-named read-outs stand apart in the source and are kept apart here. Marks after values point to notes of the source that are not given here.
Legend:
[1] = molecular target: human immunoproteasome (i20S) β2 (Homo sapiens, UniProt P40306+P49720); assay: Proteasome subunit inhibition, i20S β2; format: biochemical
[2] = PAMPA-BBB permeability assay; conditions: PAMPA-BBB; for recovery / Papp: PAMPA; for recovery: % Recovery; for Papp: Mean Permeability
D283-med cell line = assay: Cytotoxicity against D283-med cells; format: cell-based, human
[3] = molecular target: human immunoproteasome (i20S) β1 (Homo sapiens, UniProt P28065+P40306); assay: Proteasome subunit inhibition, i20S β1; format: biochemical
[4] = Liver microsomal stability; conditions: mouse liver microsomes
[5] = In vivo pharmacokinetics, plasma and brain; set-up: species or system Male C57BL/6 mice; conditions: mice
Caco-2 cells [6] = assay: Caco-2 cell permeability and efflux; format: in vitro ADME, human; conditions: for % Recovery (A-B): Caco-2, A-B direction; for % Recovery (B-A): Caco-2, B-A direction; for Pe (A-B): Caco-2, apical to basolateral; for Pe (B-A): Caco-2, basolateral to apical; for Efflux Ratio: Caco-2
SF188 cell line = assay: Cytotoxicity against SF188 cells; format: cell-based, human
Plasma stability = format: in vitro ADME; conditions: for Plasma Stability % remaining: mouse plasma
[7] = molecular target: human immunoproteasome (i20S) β5 (Homo sapiens, UniProt P20618+P28062); assay: Proteasome subunit inhibition, i20S β5; format: biochemical
[8] = system: human foreskin fibroblasts (HFF-1) cell line; assay: Cytotoxicity against HFF-1 cells; format: cell-based; conditions: read-out: HFF-1 IC50; non-cancerous fibroblasts
H460 cell line = assay: Cytotoxicity against H460 cells; format: cell-based; conditions: read-out: H460 IC50; non-small cell lung cancer cell line
[9] = molecular target: human constitutive proteasome (c20S) β1 (Homo sapiens, UniProt P28072+Q99436); assay: Proteasome subunit inhibition, c20S β1; format: biochemical
[10] = Caco-2 cell permeability and efflux; format: in vitro ADME, human; conditions: human; for Papp A→B / Papp B→A: Caco-2
P-gp = assay: Caco-2 cell permeability and efflux; format: in vitro ADME, human; conditions: human, Caco-2
[11] = molecular target: human constitutive proteasome (c20S) β2 (Homo sapiens, UniProt P49720+Q99436); assay: Proteasome subunit inhibition, c20S β2; format: biochemical
[12] = molecular target: human constitutive proteasome (c20S) β5 (Homo sapiens, UniProt P20618+P28074); assay: Proteasome subunit inhibition, c20S β5; format: biochemical
mice = assay: Toxicity observation in the PK study; format: in vivo; conditions: 1 mg/kg i.v.
Whole blood stability = format: in vitro ADME; conditions: whole blood incubation, 2 hours
in vitro = conditions: mouse liver microsomes
Caco-2 cells [13] = conditions: ref Literature data; cited from earlier work
[14] = read-out: i20S β2 IC50 ± SD, read 60 to 90 minutes after start
[15] = read-out: D283-med IC50, medulloblastoma cell line
[16] = read-out: i20S β1 IC50 ± SD, read 60 to 90 minutes after start
[17] = read-out: SF188 IC50, glioblastoma cell line
[18] = read-out: i20S β5 IC50 ± SD, read 60 to 90 minutes after start
[19] = Homo sapiens, D283 Med, read-out: D283-med IC50, medulloblastoma cell line
[20] = Caco-2, % Recovery (A-B), Caco-2, A-B direction
[21] = Caco-2, % Recovery (B-A), Caco-2, B-A direction
[22] = Homo sapiens, SF-188, read-out: SF188 IC50, glioblastoma cell line

Row | Structure (SMILES) | IC50 [1, 14] [nM] | % Recovery [2] [%] | Mean Permeability [2] | IC50 (D283-med cell line; [15]) [nM] | IC50 [3, 16] [nM] | Microsomal Stability Clearance Category [4] | Microsomal Stability mCLint [4] [µL/min/mg] | Microsomal Stability t1/2 [4] [min] | % Recovery (A-B) (Caco-2 cells [6]) [%] | % Recovery (B-A) (Caco-2 cells [6]) [%] | Pe (A-B) (Caco-2 cells [6]) | Pe (B-A) (Caco-2 cells [6]) | IC50 (SF188 cell line; [17]) [nM] | Plasma Stability % remaining (Plasma stability; after 2 hr) | IC50 [7, 18] [nM] | IC50 (H460 cell line) [nM] | recovery [2] [%] | Papp [2] [×10⁻⁶ cm/s] | IC50 (D283-med cell line; [19]) [nM] | IC50 (SF188 cell line; [22]) [nM] | further results
1 | CC(C)C[C@H](NC(=O)[C@@H]1Cc2c(F)c(F)c(c(F)c2F)S(=O)(=O)c2cccc(c2)CC(=O)N[C@@H](C(C)C)C(=O)N1)C(=O)[C@@]1(C)CO1 [Compound 11, (5S,8S)-3^2,3^3,3^5,3^6-Tetrafluoro-8-isopropyl-N-((S)-4-methyl-1-((R)-2-methyloxiran-2-yl)-1-oxopentan-2-yl)-7,10-dioxo-2-thia-6,9-diaza-1(1,3),3(1,4)-dibenzenacycloundecaphane-5-carboxamide 2,2-dioxide] | 829 ± 187 | 64 | 2.15 10^−6 cm/sec | 6 ± 2 | 379 ± 47.7 | Medium | 43 | 32 | 91 | 97 | 7.2 10^−6 cm/sec | 45.4 10^−6 cm/sec | 9.8 ± 1.2 | 88% | 830 ± 260 | 79 ± 20 | – | – | – | – | Plasma half-life ([5]; 10 mg/kg i.v., with and without tariquidar): 72 to 84 min; Brain tissue concentration ([5]; 10 mg/kg i.v., with and without tariquidar, 30 minutes and 2 hours): no quantifiable concentrations were detected; IC50 [8]: 85 ± 7 nM
2 | CC(C)C[C@H](NC(=O)[C@@H]1CSCCOCCOCCC(=O)N[C@@H](C(C)C)C(=O)N1)C(=O)[C@@]1(C)CO1 [Compound 41, (9R,12S)-12-Isopropyl-N-((S)-4-methyl-1-((R)-2-methyloxiran-2-yl)-1-oxopentan-2-yl)-11,14-dioxo-1,4-dioxa-7-thia-10,13-diazacyclohexadecane-9-carboxamide] | – | – | – | – | – | – | – | – | – | – | – | – | – | – | – | – | 98 | 0.22 | 90 ± 8 | 113 ± 9 | IC50 [1]: 277 ± 49.1 nM; IC50 [3]: 49 ± 2.2 nM; IC50 [9]: 484 ± 33 nM; Papp A→B [10]: 0.75 ×10⁻⁶ cm/s; Papp B→A [10]: 20.8 ×10⁻⁶ cm/s; recovery [10, 20]: 102%; recovery [10, 21]: 101%; Efflux Ratio (P-gp): 27.6; IC50 [7]: 4900 ± 2160 nM; IC50 [11]: 110 ± 20.3 nM; IC50 [12]: 390 ± 50.7 nM
3 | CC(C)C[C@H](NC(=O)[C@@H]1Cc2c(F)c(F)c(c(F)c2F)Sc2cccc(c2)CC(=O)NC(C)(C)C(=O)N1)C(=O)[C@@]1(C)CO1 [Compound 31, (S)-3^2,3^3,3^5,3^6-Tetrafluoro-8,8-dimethyl-N-((S)-4-methyl-1-((R)-2-methyloxiran-2-yl)-1-oxopentan-2-yl)-7,10-dioxo-2-thia-6,9-diaza-1(1,3),3(1,4)-dibenzenacycloundecaphane-5-carboxamide] | 1060 ± 121 | 64 | 3.70 10^−6 cm/sec | 57 ± 14 | 207 ± 14.3 | High | 182 | 8 | 94 | 73 | 3.6 10^−6 cm/sec | 63.0 10^−6 cm/sec | 24 ± 9 | 81 after 2 hr % | 763 ± 199 | 175 ± 16 | – | – | – | – | Efflux Ratio (Caco-2 cells [6]): 17.6; IC50 [8]: 122 ± 14 nM
4 | CC(C)C[C@H](NC(=O)[C@@H]1CS(=O)(=O)CCCCCCCCCC(=O)N[C@@H](C(C)C)C(=O)N1)C(=O)[C@@]1(C)CO1 [Compound 40, (3R,6S)-6-Isopropyl-N-((S)-4-methyl-1-((R)-2-methyloxiran-2-yl)-1-oxopentan-2-yl)-5,8-dioxo-1-thia-4,7-diazacycloheptadecane-3-carboxamide 1,1-dioxide] | – | – | – | 2.26 ± 0.26 | – | High | – | – | – | – | – | – | – | 94 after 2 hr % | – | – | 77 | 3.34 | 2.3 | 6.7 ± 0.3 | IC50 [1]: 23 ± 1.6 nM; IC50 [3]: 144 ± 9.2 nM; Levels in brain tissues ([5]; 1 mg/kg i.v.): failed to achieve detectable levels; Plasma concentrations after dosing ([5]; 1 mg/kg i.v.): negligible plasma concentrations beyond 5 minutes post-dosing; Plasma concentrations after dosing ([5]; 10 mg/kg): did not exhibit significant plasma concentrations beyond 5 minutes post-administration; Signs of toxicity (mice): lack of toxicity; IC50 [9]: 767 ± 177 nM; Whole blood retention (Whole blood stability): ~ 15%; Papp A→B [10]: 10.1 ×10⁻⁶ cm/s; Papp B→A [10]: 48.8 ×10⁻⁶ cm/s; recovery [10, 20]: 91%; recovery [10, 21]: 89%; Efflux Ratio (P-gp): 4.8; remaining at 5 h (Plasma stability; mouse, plasma, Plasma Stability % remaining, after 5 hr): > 75%; IC50 [7]: 16 ± 2 nM; IC50 [11]: 39.4 ± 6.3 nM; half-life (in vitro): < 5 min; microsomal CLint (in vitro): 323 µL/min/mg; IC50 [12]: 7.5 ± 0.6 nM
5 | CC(C)C[C@H](NC(=O)[C@H](CCc1ccccc1)NC(=O)CN1CCOCC1)C(=O)N[C@@H](Cc1ccccc1)C(=O)N[C@@H](CC(C)C)C(=O)[C@@]1(C)CO1 [Carfilzomib, reference compound] | – | – | – | – | – | High | – | – | – | – | – | – | – | – | – | – | 41 | 1.43 | 205 ± 24 | 706 ± 82 | Efflux Ratio (Caco-2 cells [13]): 28.6*; remaining at 2 h (Plasma stability; mouse, plasma, Plasma Stability % remaining, after 2 hr): 99%; half-life (in vitro): < 5 min
6 | CC(C)C[C@H](NC(=O)[C@@H]1Cc2c(F)c(F)c(c(F)c2F)Sc2cccc(c2)CC(=O)N[C@@H](C(C)C)C(=O)N1)C(=O)[C@@]1(C)CO1 [Compound 10, (5S,8S)-3^2,3^3,3^5,3^6-Tetrafluoro-8-isopropyl-N-((S)-4-methyl-1-((R)-2-methyloxiran-2-yl)-1-oxopentan-2-yl)-7,10-dioxo-2-thia-6,9-diaza-1(1,3),3(1,4)-dibenzenacycloundecaphane-5-carboxamide] | 464 ± 50.1 | 49 | 3.48 10^−6 cm/sec | 17 ± 7 | 163 ± 14.9 | High | 202 | – | 83 | 75 | 25.1 10^−6 cm/sec | 34.4 10^−6 cm/sec | 123 ± 8 | 98 after 2 hr % | 532 ± 56.9 | 2590 | – | – | – | – | Pe (effective permeability) [2]: around 4 10^−6 cm s^−1; Mean B/P ratio ([5]; 1 mg/kg i.v., 1.0 h): 0.78; Mean Brain Con ([5]; 1 mg/kg i.v., 1.0 h): 12.0 ng/g; Mean Plasma Conc. ([5]; 1 mg/kg i.v., 1.0 h): 16.8 ng/mL; Mean Plasma Conc. ([5]; 1 mg/kg i.v., 4.0 h): 5.4 ng/mL; Mean Brain Con ([5]; 1 mg/kg i.v., 4.0 h, LLOQ 2.00 ng/mL, 1 mg/kg): below the limit of quantification and BLQ; Plasma Cmax ([5]; 1 mg/kg i.v., earliest time point): 423 ng/mL; Signs of toxicity (mice; 1 mg/kg): no signs of toxicity were observed; also recorded: lack of toxicity; Efflux Ratio (Caco-2 cells [6]): 1.4; Plasma Stability % remaining (Plasma stability; after 5 hr): more than 75%

— paper PMC13626384 (Journal of medicinal chemistry, 2025)
